Laboratory results from patent EP1619195A2, “Compounds isolated from gamboge resin having activity in inhibiting the growth of tumor/cancer cells and pharmaceutical compositions comprising the same” (priority 2004, dated 2006).
Converted amounts (≈) assume the structure as drawn.

Tests used:
Conditions in all cases: for LC50: 50% cell destroying lethal concentration
HUVEC = assay: in vitro
Description: (§1) The cancer cell growth inhibition test was primarily used to detect the effect of a candidate drug on cancer cell proliferation. The working principle involved therein is the abilityof viable cells to shift alamarBlue (Biosource, USA) from its originally non-fluorescent oxidized state to a reduced form (fluorescent, red) having fluorescence via metabolic reaction. According to the fluorescent data result generated by the alamarBlue reagent thus obtained, the proliferation of the viable cells and cell activity can be quantified for detection.
(§2) In this experiment, the assay concentrations of the candidate drug were set to be 0.01, 0.1, 1, 10, and 100 µg/ml, and the following cell lines were used: 6 human cancer cells MCF-7 (breast cancer), HT-29 (colon cancer), HL-60 (leukemia), HepG2 (liver cancer), A549 (lung cancer), and U937 (lymphoma cancer), and a normal human umbilicalvenalepithelialcell (HUVEC).

U937 (lymphoma cancer) = assay: cells
Description: as §1, §2

HT-29 (colon cancer) = assay: cells
Description: as §1, §2

A549 (lung cancer) = assay: cells
Description: as §1, §2

MCF-7 (breast cancer) = assay: cells
Description: as §1, §2

HL-60 (leukemia) = assay: cells
Description: as §1, §2

HepG2 (liver cancer) = assay: cells
Description: as §1, §2

[1] = HT-29, 50% cell growth inhibition concentration
[2] = MCF-7, 50% cell growth inhibition concentration
[3] = HepG2, 50% cell growth inhibition concentration
[4] = Homo sapiens, HUVEC, HUVEC (normal human cell), 50% cell growth inhibition concentration
[5] = Homo sapiens, A549, A549, 50% cell growth inhibition concentration
[6] = Homo sapiens, HL-60, HL-60, 50% cell growth inhibition concentration

Q: Which results are given for CC(C)=CCc1c2c(c(O)c3c1OC14C(=CC5CC1C(C)(C)OC4(CC=C(C)C(=O)O)C5=O)C3=O)C=CC(C)(C)O2 (centres unmarked) [TSB-7, morellic acid]?
A: LC50 (HUVEC; HUVEC (normal human cell)): 4.8 µg/mL (≈ 8.56 µM); IC50 (HUVEC; HUVEC (normal human cell), 50% cell growth inhibition concentration): 0.88 µg/mL (≈ 1.57 µM); LC50 (U937 (lymphoma cancer); U937): 4.8 µg/mL (≈ 8.56 µM); IC50 (U937 (lymphoma cancer); U937, 50% cell growth inhibition concentration): 1.6 µg/mL (≈ 2.85 µM); LC50 (HT-29 (colon cancer); HT-29): 7.2 µg/mL (≈ 12.8 µM); IC50 (HT-29 (colon cancer); [1]): 2.8 µg/mL (≈ 4.99 µM); LC50 (A549 (lung cancer); A549): 3.4 µg/mL (≈ 6.06 µM); IC50 (A549 (lung cancer); A549, 50% cell growth inhibition concentration): 0.76 µg/mL (≈ 1.36 µM); LC50 (MCF-7 (breast cancer); MCF-7): 6.2 µg/mL (≈ 11.1 µM); IC50 (MCF-7 (breast cancer); [2]): 0.98 µg/mL (≈ 1.75 µM); LC50 (HL-60 (leukemia); HL-60): 5.6 µg/mL (≈ 9.99 µM); IC50 (HL-60 (leukemia); HL-60, 50% cell growth inhibition concentration): 1.2 µg/mL (≈ 2.14 µM); LC50 (HepG2 (liver cancer); HepG2): 3.9 µg/mL (≈ 6.96 µM); IC50 (HepG2 (liver cancer); [3]): 1.7 µg/mL (≈ 3.03 µM)

Q: For CC(C)=CCc1c2c(c(O)c3c1OC14C(=CC5CC1C(C)(C)OC4(CC=C(C)C(=O)O)C5=O)C3=O)C=CC(C)(C)O2 (centres unmarked) [TSB-2, isomorellic acid], which LC50 (HUVEC; HUVEC (normal human cell)) is on record?
A: 22 µg/mL (≈ 39.2 µM)

Q: And the IC50 (HUVEC; [4])?
A: 1.7 µg/mL (≈ 3.03 µM)

Q: And the IC50 (U937 (lymphoma cancer); Homo sapiens, U-937)?
A: 1.6 µg/mL (≈ 2.85 µM)

Q: What about the LC50 (U937 (lymphoma cancer); U937) of the same compound?
A: 6.1 µg/mL (≈ 10.9 µM)

Q: And the LC50 (HT-29 (colon cancer); HT-29)?
A: 12 µg/mL (≈ 21.4 µM)

Q: What about the IC50 (HT-29 (colon cancer); [1]) of the same compound?
A: 6.9 µg/mL (≈ 12.3 µM)

Q: And the LC50 (A549 (lung cancer); A549)?
A: 4.6 µg/mL (≈ 8.2 µM)

Q: What about the IC50 (A549 (lung cancer); [5]) of the same compound?
A: 1.3 µg/mL (≈ 2.32 µM)

Q: And the LC50 (MCF-7 (breast cancer); MCF-7)?
A: 24 µg/mL (≈ 42.8 µM)

Q: What about the IC50 (MCF-7 (breast cancer); [2]) of the same compound?
A: 9.0 µg/mL (≈ 16.1 µM)

Q: And the LC50 (HL-60 (leukemia); HL-60)?
A: 43 µg/mL (≈ 76.7 µM)

Q: And the IC50 (HL-60 (leukemia); [6])?
A: 2.3 µg/mL (≈ 4.1 µM)

Q: What about the LC50 (HepG2 (liver cancer); HepG2) of the same compound?
A: 33 µg/mL (≈ 58.9 µM)

Q: And the IC50 (HepG2 (liver cancer); [3])?
A: 6.4 µg/mL (≈ 11.4 µM)

Q: Which LC50 (HUVEC; HUVEC (normal human cell)) does the source give for CC(C)=CCc1c2c(c(O)c3c1OC14C(=CC5CC1C(C)(C)OC4(CC=C(C)CO)C5=O)C3=O)C=CC(C)(C)O2 (centres unmarked) [TSB-6, isomorellinol] here?
A: 9.3 µg/mL (≈ 17 µM)

Q: What about the IC50 (HUVEC; Homo sapiens, HUVEC) of the same compound?
A: 1.5 µg/mL (≈ 2.74 µM)

Q: What about the IC50 (U937 (lymphoma cancer); Homo sapiens, U-937) of the same compound?
A: 1.3 µg/mL (≈ 2.38 µM)

Q: What about the LC50 (U937 (lymphoma cancer); U937) of the same compound?
A: 3.8 µg/mL (≈ 6.95 µM)

Q: And the LC50 (HT-29 (colon cancer); HT-29)?
A: 8.5 µg/mL (≈ 15.5 µM)

Q: And the IC50 (HT-29 (colon cancer); Homo sapiens, HT-29)?
A: 5.2 µg/mL (≈ 9.51 µM)

Q: What about the LC50 (A549 (lung cancer); A549) of the same compound?
A: 9.6 µg/mL (≈ 17.6 µM)

Q: And the IC50 (A549 (lung cancer); Homo sapiens, A549)?
A: 2 µg/mL (≈ 3.66 µM)

Q: And the IC50 (MCF-7 (breast cancer); Homo sapiens, MCF7)?
A: 0.9 µg/mL (≈ 1.65 µM)

Q: And the LC50 (MCF-7 (breast cancer); MCF-7)?
A: 5.8 µg/mL (≈ 10.6 µM)

Q: What about the LC50 (HL-60 (leukemia); HL-60) of the same compound?
A: 6.2 µg/mL (≈ 11.3 µM)

Q: What about the IC50 (HL-60 (leukemia); Homo sapiens, HL-60) of the same compound?
A: 1.4 µg/mL (≈ 2.56 µM)

Q: What about the LC50 (HepG2 (liver cancer); HepG2) of the same compound?
A: 3.0 µg/mL (≈ 5.49 µM)

Q: What about the IC50 (HepG2 (liver cancer); Homo sapiens, HepG2) of the same compound?
A: 1.2 µg/mL (≈ 2.2 µM)

Q: For CC(C)=CCCC1(C)C=Cc2c(O)c3c(c(CC=C(C)C)c2O1)OC12C(=CC4CC1C(C)(C)OC2(CC=C(C)C(=O)O)C4=O)C3=O (centres unmarked) [TSB-3, isogambogic acid], which LC50 (HUVEC; HUVEC (normal human cell)) is on record?
A: 5.2 µg/mL (≈ 8.27 µM)

Q: What about the IC50 (HUVEC; [4]) of the same compound?
A: 1.1 µg/mL (≈ 1.75 µM)

Q: What about the IC50 (U937 (lymphoma cancer); Homo sapiens, U-937) of the same compound?
A: 0.82 µg/mL (≈ 1.3 µM)

Q: What about the LC50 (U937 (lymphoma cancer); U937) of the same compound?
A: 3.1 µg/mL (≈ 4.93 µM)

Q: What about the LC50 (HT-29 (colon cancer); HT-29) of the same compound?
A: 8.8 µg/mL (≈ 14 µM)

Q: And the IC50 (HT-29 (colon cancer); Homo sapiens, HT-29, HT-29, 50% cell growth inhibition concentration)?
A: 6.4 µg/mL (≈ 10.2 µM)

Q: And the LC50 (A549 (lung cancer); A549)?
A: 4.8 µg/mL (≈ 7.63 µM)

Q: What about the IC50 (A549 (lung cancer); [5]) of the same compound?
A: 0.88 µg/mL (≈ 1.4 µM)

Q: And the IC50 (MCF-7 (breast cancer); Homo sapiens, MCF7, MCF-7, 50% cell growth inhibition concentration)?
A: 1.6 µg/mL (≈ 2.54 µM)

Q: And the LC50 (MCF-7 (breast cancer); MCF-7)?
A: 4.3 µg/mL (≈ 6.84 µM)

Q: What about the LC50 (HL-60 (leukemia); HL-60) of the same compound?
A: 4.6 µg/mL (≈ 7.32 µM)

Q: What about the IC50 (HL-60 (leukemia); [6]) of the same compound?
A: 0.97 µg/mL (≈ 1.54 µM)

Q: What about the LC50 (HepG2 (liver cancer); HepG2) of the same compound?
A: 1.9 µg/mL (≈ 3.02 µM)

Q: And the IC50 (HepG2 (liver cancer); Homo sapiens, HepG2, HepG2, 50% cell growth inhibition concentration)?
A: 1.2 µg/mL (≈ 1.91 µM)
